Measurements published in patent publication US8557796B2, “Substituted 1-oxa-2,8-diaza-spiro [4,5] dec-2-ene derivatives and related treatment methods” (Gruenenthal GmbH, priority 2001, dated 2013).

These compounds were tested on batrachotoxin (BTX) binding site (binding site 2) of the sodium channel (assay: Bond test on the sodium channel, binding site 2 (BTX bond), [3H]-batrachotoxinin A20 α-benzoate displacement). Conditions: rat cerebrocortex synaptosomes.
`COC(=O)C(Cc1c[nH]c2ccccc12)NC(=O)C1=NOC2(CCN(S(=O)(=O)c3ccc(OC(F)(F)F)cc3)CC2)C1` (stereo not shown) [Example 1, 3-(1H-indo1-3-yl)-2-{[8-(4-trifluoromethoxy-benzene-sulphonyl)-1-oxa-2,8-diaza-spiro[4,5]dec-2-ene-3-carbonyl]-amino}-propionic acid methyl ester] was tested, and the “BTX bond, 10 μM, % inhibition” value was 68%.
With `CCOP(=O)(Cc1ccc(NC(=O)C2=NOC3(CCN(S(=O)(=O)Cc4ccccc4)CC3)C2)cc1)OCC` [Example 2] the “BTX bond, 10 μM, % inhibition” value was 55%.
In the case of `O=C(C1=NOC2(CCN(S(=O)(=O)c3cccs3)CC2)C1)N1CCN(C2CCCCCC2)CC1` [Example 3, (4-cycloheptyl-piperazin-l-yl)-[8-(thiophene-2-sulphonyl)-1-oxa-2,8-diaza-spiro [4,5]dec-2-en-3-yl]-methanone], the “BTX bond, 10 μM, % inhibition” value is reported as 78%.
In the case of `O=C(NC1CCCC1)C1=NOC2(CCN(C(=O)c3ccc([N+](=O)[O-])cc3Cl)CC2)C1` [Example 5, 8-(2-chloro-4-nitro-benzoyl)-1-oxa-2,8-diaza-spiro[4,5]dec-2-ene-3-carboxylic acid cyclopentylamide], the “BTX bond, 10 μM, % inhibition” value is reported as 64%.
In the case of `O=C(C1=NOC2(CCN(S(=O)(=O)Cc3ccccc3)CC2)C1)N1CCN(Cc2ccc3ccccc3c2)CC1` [Example 6, (4-naphthalen-2-ylmethyl-piperazin-l-yl)-(8-phenylmethane-sulphonyl-1-oxa-2,8 diaza-spiro[4,5]dec-2-en-3-yl)-methanone], the “BTX bond, 10 μM, % inhibition” value is reported as 49%.
With `CC(NC(=O)C1=NOC2(CCN(S(=O)(=O)c3cccs3)CC2)C1)c1ccccc1` (stereo not shown) [Example 8, 8-(thiophene-2-sulphonyl)-1-oxa-2,8-diaza-spiro[4,5]dec-2-ene-3-carboxylic acid (1-phenyl-ethyl)-amide] the “BTX bond, 10 μM, % inhibition” value was 63%.
For `O=C(NCCN1CCCC1)C1=NOC2(CCN(S(=O)(=O)c3ccc(F)c(Cl)c3)CC2)C1` [Example 11], the “BTX bond, 10 μM, % inhibition” value was 69%.
With `O=C(C1=NOC2(CCN(S(=O)(=O)c3cccs3)CC2)C1)N1CCN(CCCc2ccccc2)CC1` [Example 14, [4-(3-phenyl-propyl)-piperazin-l-yl]-[8-(thiophene-2-sulphonyl)-1-oxa-2,8-diaza-spiro[4,5]dec-2-en-3-yl]-methanone] the “BTX bond, 10 μM, % inhibition” value was 79%.
With `CC1CCCCN1CCCNC(=O)C1=NOC2(CCN(S(=O)(=O)c3cc(Cl)ccc3Cl)CC2)C1` (stereo not shown) [Example 15, 8-(2,5-dichloro-benzenesulphonyl)-1-oxa-2,8-diaza-spiro[4,5]dec-2-ene-3-carboxylic acid[3-(2-methyl-piperidin-1-yl)-propyl]-amide] the “BTX bond, 10 μM, % inhibition” value was 88%.
In the case of `CN(CCc1c[nH]c2ccccc12)C(=O)C1=NOC2(CCN(S(=O)(=O)c3ccc(OC(F)(F)F)cc3)CC2)C1` [Example 16, 8-(4-trifluoromethoxy-benzenesulphonyl)-1-oxa-2,8-diaza-spiro[4,5]dec-2-ene-3 carboxylic acid [2-(1 H-indo1-3-yl)-ethyl]-methyl-amide], the “BTX bond, 10 μM, % inhibition” value is reported as 60%.
In the case of `Cc1ccc(S(=O)(=O)N2CCC3(CC2)CC(C(=O)N(CCc2ccccc2)Cc2ccccc2)=NO3)cc1` [Example 18, 8-(toluene-4-sulphonyl)-1-oxa-2,8-diaza-spiro[4,5]dec-2-ene-3-carboxylic acid benzyl-phenethyl-amide], the “BTX bond, 10 μM, % inhibition” value is reported as 53%.
`Cc1ccc([N+](=O)[O-])cc1S(=O)(=O)N1CCC2(CC1)CC(C(=O)NCCN(C)C)=NO2` [Example 19, 8-(2-methyl-5-nitro-benzenesulphonyl)-1-oxa-2,8-diaza-spiro[4,5]dec-2-ene-3 carboxylic acid (2-dimethylamino-ethyl)-amide] was tested, and the “BTX bond, 10 μM, % inhibition” value was 66%.
In the case of `O=C(NC1CCCC1OCc1ccccc1)C1=NOC2(CCN(S(=O)(=O)Cc3ccccc3)CC2)C1` (stereo not shown) [Example 20, 8-phenylmethanesulphonyl-1-oxa-2,8-diaza-spiro[4,5]dec-2-ene-3-carboxylic acid (2-benzyloxy-cyclopentyl)-amide], the “BTX bond, 10 μM, % inhibition” value is reported as 69%.
In the case of `O=C(NCC1COc2ccccc2O1)C1=NOC2(CCN(S(=O)(=O)c3cccs3)CC2)C1` (stereo not shown) [Example 21, 8-(thiophene-2-sulphonyl)-1-oxa-2,8-diaza-spiro[4,5]dec-2-ene-3-carboxylic acid (2,3-dihydro-benzo[1,4]dioxin-2-ylmethyl)-amide], the “BTX bond, 10 μM, % inhibition” value is reported as 63%.
With `Cc1ccc(C(C)NC(=O)C2=NOC3(CCN(S(=O)(=O)c4cccs4)CC3)C2)cc1` (stereo not shown) [Example 23, 8-(thiophene-2-sulphonyl)-1-oxa-2,8-diaza-spiro[4,5]dec-2-ene-3-carboxylic acid (1-p-tolyl-ethyl)-amide] the “BTX bond, 10 μM, % inhibition” value was 60%.
With `O=C(NCc1cccc(F)c1)C1=NOC2(CCN(S(=O)(=O)c3cccs3)CC2)C1` [Example 24, 8-(thiophene-2-sulphonyl)-1-oxa-2,8-diaza-spiro[4,5]dec-2-ene-3-carboxylic acid 3-fluorobenzylamide] the “BTX bond, 10 μM, % inhibition” value was 41%.
For `O=C(NC1CCN(Cc2ccc(C(F)(F)F)cc2)C1)C1=NOC2(CCN(S(=O)(=O)c3cccs3)CC2)C1` (stereo not shown) [Example 26, 8-(thiophene-2-sulphonyl)-1-oxa-2,8-diaza-spiro[4,5]dec-2-ene-3-carboxylic acid [1-(4-trifluoromethyl-benzyl)-pyrrolidin-3-yl]-amide], the “BTX bond, 10 μM, % inhibition” value was 84%.
For `Cc1ccccc1N1CCN(C(=O)C2=NOC3(CCN(S(=O)(=O)c4cccs4)CC3)C2)CC1` [Example 27, [8-(thiophene-2-sulphonyl)-1-oxa-2,8-diaza-spiro[4,5]dec-2-en-3-yl]-(4-o-tolyl-piperazin-1-yl)-methanone], the “BTX bond, 10 μM, % inhibition” value was 74%.
`Cc1ccc(S(=O)(=O)N2CCC3(CC2)CC(C(=O)N(CCC#N)Cc2ccccc2)=NO3)cc1` [Example 28, 8-(toluene-4-sulphonyl)-1-oxa-2,8-diaza-spiro[4,5]dec-2-ene-3-carboxylic acid benzyl-(2-cyano-ethyl)-amide] was tested, and the “BTX bond, 10 μM, % inhibition” value was 52%.
In the case of `O=C(NCc1ccc2c(c1)OCO2)C1=NOC2(CCN(S(=O)(=O)c3ccc(Cl)s3)CC2)C1` [Example 30, 8-(5-chloro-thiophene-2-sulphonyl)-1-oxa-2,8-diaza-spiro[4,5]dec-2-ene-3-carboxylic acid (benzo[1,3]dioxol-5-ylmethyl)-amide], the “BTX bond, 10 μM, % inhibition” value is reported as 56%.
In the case of `Cc1cccc(N2CCN(C(=O)C3=NOC4(CCN(S(=O)(=O)c5cccs5)CC4)C3)CC2C)c1` (stereo not drawn) [Example 31, (3-methyl-4-m-tolyl-piperazin-l-yl)-[8-(thiophene-2-sulphonyl)-1-oxa-2,8-diaza-spiro[4,5]dec-2-en-3-yl]-methanone], the “BTX bond, 10 μM, % inhibition” value is reported as 80%.
`Cc1ccc(S(=O)(=O)N2CCC3(CC2)CC(C(=O)N2CCN(C(C)c4ccccc4)CC2)=NO3)cc1` (stereo not drawn) [Example 32, [4-(1-phenyl-ethyl)-piperazin-l-yl]-[8-(toluene-4-sulphonyl)-1-oxa-2,8-diaza-spiro[4,5]dec-2-en-3-yl]-methanone] was tested, and the “BTX bond, 10 μM, % inhibition” value was 66%.
In the case of `Cc1ccc(S(=O)(=O)N2CCC3(CC2)CC(C(=O)N2CCN(c4ccc(C)cc4C)CC2)=NO3)cc1` [Example 33, [4-(2,4-dimethyl-phenyl)-piperazin-l-yl]-[8-(toluene-4-sulphonyl)-1-oxa-2,8-diazaspiro[4,5]dec-2-en-3-yl]methanone], the “BTX bond, 10 μM, % inhibition” value is reported as 67%.
For `O=C(C1=NOC2(CCN(S(=O)(=O)c3cccc(C(F)(F)F)c3)CC2)C1)N1CCN(Cc2ccc3ccccc3c2)CC1` [Example 35, (4-naphthalen-2-ylmethyl-piperazin-l-yl)-[8-(3-trifluoromethyl-benzenesulphonyl)-1-oxa-2,8-diaza-spiro[4,5]dec-2-en-3-yl]-methanone], the “BTX bond, 10 μM, % inhibition” value was 50%.
With `Cc1ccc(F)cc1S(=O)(=O)N1CCC2(CC1)CC(C(=O)NCCN(C)C)=NO2` [Example 37, 8-(5-fluoro-2-methyl-benzenesulphonyl)-1-oxa-2,8-diaza-spiro[4,5]dec-2-ene-3-carboxylic acid (2-dimethylamino-ethyl)-amide] the “BTX bond, 10 μM, % inhibition” value was 70%.
`O=C(NCc1cccs1)C1=NOC2(CCN(S(=O)(=O)c3ccc([N+](=O)[O-])cc3)CC2)C1` [Example 38, 8-(4-nitro-benzenesulphonyl)-1-oxa-2,8-diaza-spiro[4,5]dec-2-ene-3-carboxylic acid (thiophen-2-ylmethyl)-amide] was tested, and the “BTX bond, 10 μM, % inhibition” value was 65%.
In the case of `O=C(NC(c1ccccc1)c1ccccc1)C1=NOC2(CCN(S(=O)(=O)c3ccc(Cl)s3)CC2)C1` [Example 40, 8-(5-chloro-thiophene-2-sulphonyl)-1-oxa-2,8-diaza-spiro[4,5]dec-2-ene-3 carboxylic acid benzhydryl-amide], the “BTX bond, 10 μM, % inhibition” value is reported as 47%.
With `Cc1ccc(C(C)NC(=O)C2=NOC3(CCN(S(=O)(=O)c4ccc(C)cc4)CC3)C2)cc1` (stereo not shown) [Example 45, 8-(toluene-4-sulphonyl)-1-oxa-2,8-diaza-spiro[4,5]dec-2-ene-3-carboxylic acid (1-p-tolyl-ethyl)-amide] the “BTX bond, 10 μM, % inhibition” value was 49%.
In the case of `O=C(NC1CCCC1OCc1ccccc1)C1=NOC2(CCN(S(=O)(=O)c3cccs3)CC2)C1` (stereo not shown) [Example 47, 8-(thiophene-2-sulphonyl)-1-oxa-2,8-diaza-spiro[4,5]dec-2-ene-3-carboxylic acid (2-benzyloxy-cyclopentyl)-amide], the “BTX bond, 10 μM, % inhibition” value is reported as 71%.
With `CC(=O)N1CCC2(CC1)CC(C(=O)NCc1ccccc1)=NO2` [Example 48, 8-acetyl-1-oxa-2,8-diaza-spiro[4,5]dec-2-ene-3-carboxylic acid benzylamide] the “BTX bond, 10 μM, % inhibition” value was 43%.
`O=C(NC1CCN(Cc2ccc3ccccc3c2)C1)C1=NOC2(CCN(S(=O)(=O)c3ccc(Cl)s3)CC2)C1` (stereo not shown) [Example 50, 8-(5-chloro-thiophene-2-sulphonyl)-1-oxa-2,8-diaza-spiro[4,5]dec-2-ene-3 carboxylic acid (1-naphthalen-2-ylmethyl-pyrrolidin-3-yl)-amide] was tested, and the “BTX bond, 10 μM, % inhibition” value was 87%.
